Laboratory results reported in patent US4988688A, “4-(N-substituted amino)-2-butynyl-1-ureas and thioureas and derivatives thereof as centrally acting muscarinic agents” (Warner-Lambert Company, priority 1989, dated 1991).
Where a name gives a salt, the structure may show the parent alone. Read-outs that look alike come from different tables or passages of the source.

Columns and labels:
[1] = target: central muscarinic agonist site; experiment: Receptor [^3H]Cis-methyldioxalane Assay (RCMD); type: binding; settings: rat cerebral cortex tissue; radiolabeled cis-methyldioxalane; head prints (0.1 μm)
[2] = tested on: central muscarinic antagonist site; type: binding, rat; settings: read-out: RQNB (1 μM) IC50
[3] = tested on: human SK-N-SH cells bearing muscarinic binding sites
Method: In the Muscarinic Induced Inositol Phosphate Accumulation Assay (MIPA) human SK-N-SH cells bearing muscarinic binding sites are incubated with the test compound. The production of inositol phosphates is then measured. Stimulation of inositol phosphate turnover reflects the degree of muscarinic agonist activity of the test compound. The concentration of test compound required to produce a response 50% of the maximum is then determined.

[4] = tested on: age-related cognitive deficits; settings: increasing acetylcholine release from presynaptic nerve terminals; cited from earlier work
[5] = tested on: mice; settings: cited from earlier work
[6] = tested on: aged humans and nonhuman primates; settings: aged humans and nonhuman primates with decreased cognition; acetylcholinesterase inhibitors such as physostigmine; cited from earlier work

What does the source list for CNC(=O)N(C)CC#CCN1CCCC1 [Example 1a, N,N'-Dimethyl-N-4-(1-pyrrolidinyl)-2-butynyl]-urea, hydrochloride]?
IC50 [1]: 0.0434 µM; IC50 [2]: 8.79 µM; MIPA (ED50) [3]: 2.91 × 10^-5

For Nc1ccncc1N [3,4-diaminopyridine], which “effect on age-related cognitive deficits” value [4] is on record?
The value was “ameliorate age-related cognitive deficits”.

With C(#CCN1CCCC1)CN1CCCC1 [tremorine, 1,4-dipyrrolidino-2-butyne] as the molecule, how does the “tremor of the head and limbs and its duration” value [5] read?
The value was “profound tremor of the head and limbs lasting for more than one hour”.

Which memory improvement [6] does the source give for CNC(=O)Oc1ccc2c(c1)[C@]1(C)CCN(C)[C@@H]1N2C [physostigmine] here?
The memory improvement was “improved memory”.

Which IC50 [1] does the source give for CNC(=O)N(C)CC#CCN(C)C.Cl [Example 2, N-[4-(Dimethylamino)-2-butynyl]-N,N'-dimethyl-urea, monohydrochloride] here?
The IC50 was 0.275 µM.

What about the IC50 ([2]; rat cerebral cortex tissue, radiolabeled quinuclidinyl benzilate, head prints (1 μM)) of the same molecule?
The IC50 was 100 µM.

And the “MIPA (ED50)” value [3]?
The value was 1.84 × 10^-5.
